The values below are quoted from earlier work in patent publication US20070254858A1, “Contraceptive and Acne Medication Combination and Treatment of Acne and Other Diseases with Reduced Side Effects” (priority 2006, published 2007).

The structures appear in SMILES notation.

One series concerns progesterone activity. The settings on record: 1 mg of progestin; activity of 1 mg of norethindrone taken as baseline.
Series [1] concerns androgen (testosterone-like) activity. The settings on record: 1 mg of progestin; activity of 1 mg of norethindrone taken as baseline.
The subject of a further series is severe acne. As to conditions: within 12 to 16 weeks of isotretinoin treatment.
Series [2] deals with sebaceous gland / sebocytes.
The conditions of series [3]: in vivo.

For `C#C[C@]1(O)CC[C@H]2[C@@H]3CCC4=CC(=NO)CC[C@@H]4[C@H]3CC[C@@]21CC` (mixture of isomers) [norelgestromin], the “Progestational Activity” value in the series with progesterone activity is on record as 1.3. In series [1], the “Androgen Activity” value is on record as 1.9.
As for `C#C[C@]1(OC(C)=O)CC[C@H]2[C@@H]3CCC4=CC(=NO)CC[C@@H]4[C@H]3CC[C@@]21CC` (mixture of isomers) [norgestimate], in the series with progesterone activity, the “Progestational Activity” value is given as 1.3.
For the compound `C#CC1(O)CC[C@H]2[C@@H]3CCC4=CC(=O)CC[C@@H]4[C@H]3CC[C@@]21CC` (mixture of isomers) [dl-norgestrel], the “Progestational Activity” value with progesterone activity was 2.6.
For `C#C[C@]1(O)CC[C@H]2[C@@H]3CCC4=CCCC[C@@H]4[C@H]3C(=C)C[C@@]21CC` [desogestrel], the “Progestational Activity” value in the series on progesterone activity is reported as 9.
Consider `C[C@]12CCC(=O)C=C1[C@@H]1C[C@@H]1[C@H]1[C@@H]3[C@@H]4C[C@@H]4[C@@]4(CCC(=O)O4)[C@@]3(C)CC[C@@H]12` [drospirenone], for which, in the series on progesterone activity, the “Progestational Activity” value is 1.5. In series [1], the “Androgen Activity” value was 0.
Consider `C#C[C@]1(OC(C)=O)CC[C@H]2[C@@H]3CCC4=C[C@@H](OC(C)=O)CC[C@@H]4[C@H]3CC[C@@]21C` [ethynodiol diacetate], for which, in the series with progesterone activity, the “Progestational Activity” value is reported as 1.4.
As for `CC1=C(/C=C/C(C)=C/C=C/C(C)=C\C(=O)O)C(C)(C)CCC1` [isotretinoin, 13-cis-retinoic acid], in the series on severe acne, the “people with severe acne in complete or near complete cure” value is on record as “Up to 90%”. Further, under “drug taken with food”, the “effect of food on absorption” value is recorded as “absorption is enhanced”. Also, the “accumulation in the skin” value (during long term administration) is “no progressive accumulation”. Under “oral isotretinoin”, the “parent drug in urine” value is recorded as “No parent drug is identified in the urine” and the placental transfer result is on record as “crosses the placenta”. For the setting “oral isotretinoin, compared to etretinate”, the half-life is 7 to 37 h. Further, in series [2] (daily doses as low as 0.1 mg/kg after four weeks), the “reduction of sebocyte lipid synthesis” value was 75%. In addition, in series [2] (in vivo), the “reduction of sebaceous gland size” value is given as “up to 90%”. Besides, the “most significant side effect” value in series [3] was “teratogenicity (birth defects)”.
Turning to `C#C[C@]1(OC(C)=O)CC[C@H]2[C@@H]3CCC4=CC(=O)CC[C@@H]4[C@H]3CC[C@@]21C` [norethindrone acetate], the “Progestational Activity” value with progesterone activity is on record as 1.2.
Turning to `C#C[C@]1(O)CC[C@H]2[C@@H]3CCC4=CC(=O)CC[C@@H]4[C@H]3CC[C@@]21C` [norethindrone], the “Progestational Activity” value in the series on progesterone activity was 1.

A word on the half-life: it is the time in which the quantity being followed falls by half.
